Reference: patent US20260242419A1, “A CYCLIC PEPTIDE FOR TRAPPING INTERLEUKIN-1 BETA” (Merck Sharp & Dohme LLC, priority 2023, published 2026)
Starred links: 1 amine or outer side, 2 acyl side, 3 side chain; linkers in the order of their positions; H or OH if unused. Non-standard residues stand in square brackets, D forms with d. Residues, ends and D or L forms follow the SMILES beside them. Trp(4-Cl)(βS-Me) = C[C@@H](c1c[nH]c2cccc(Cl)c12)[C@H](N)C(=O)O; dPro(3S-(4-Br-benzyl)) = O=C(O)[C@@H]1NCC[C@@H]1Cc1ccc(Br)cc1; Trp(βS-Me,4-F) = C[C@@H](c1c[nH]c2cccc(F)c12)[C@H](N)C(=O)O; Bip(4'-COOH) = N[C@@H](Cc1ccc(-c2ccc(C(=O)O)cc2)cc1)C(=O)O; Ala(1-bicyclo(1.1.1)pentyl) = N[C@@H](CC12CC(C1)C2)C(=O)O; dPro(4R-Bzl(4-F)) = O=C(O)[C@H]1C[C@@H](Cc2ccc(F)cc2)CN1; X19 = O=C([C@H]1C[C@@H](Cc2ccc(Br)cc2)CN1[*:1])[*:2]; 1Nal(3S-Me) = C[C@@H](c1cccc2ccccc12)[C@H](N)C(=O)O; Ala(pyrimidin-5-yl) = N[C@@H](Cc1cncnc1)C(=O)O; Phe(4-COOH) = N[C@@H](Cc1ccc(C(=O)O)cc1)C(=O)O; dαMeDab = C[C@](CCN[*:3])(N[*:1])C(=O)[*:2]; Pro(cis-4-F) = O=C(O)[C@@H]1C[C@H](F)CN1; Ala(4-THP) = N[C@@H](CC1CCOCC1)C(=O)O; d(αMeK) = C[C@@](N)(CCCCN)C(=O)O; 4Pal = N[C@@H](Cc1ccncc1)C(=O)O; αMeD = C[C@](N)(CC(=O)O)C(=O)O; αMeK = C[C@](N)(CCCCN)C(=O)O; hSer = N[C@@H](CCO)C(=O)O; Orn = NCCC[C@H](N)C(=O)O; Dab = NCC[C@H](N)C(=O)O; Dap = NC[C@H](N)C(=O)O; Aib = CC(C)(N)C(=O)O

What follows are compounds tested against T1, IL-1β (Homo sapiens, UniProt P01584) (assay: IL-6 assay in MRC5 cells: inhibition of IL-1β induced IL-6 secretion (AlphaLISA)). Details: inhibition of IL-1β induced IL-6 secretion in MRC5 cells; read-out: MRC5 IC50.
T1 construct: purchased BioLegend 579404
Type: cell-based
Summary of the method: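 Compound was pre-incubated 1 h at ambient temperature with recombinant human IL-1β at 2λ EC80 before adding human lung fibroblast MRC5 cells (3000/well) in EMEM with 0.025% BSA. After overnight culture at 37 °C, 5% CO2, secreted IL-6 in conditioned medium was measured by AlphaLISA; IC50 from 4-parameter logistic fits.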

T1 sequence (P01584 117-269): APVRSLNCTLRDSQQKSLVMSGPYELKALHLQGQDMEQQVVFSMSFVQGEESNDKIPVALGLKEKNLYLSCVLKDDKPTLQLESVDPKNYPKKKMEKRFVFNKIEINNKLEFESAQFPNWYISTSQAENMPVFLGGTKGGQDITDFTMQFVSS

Compound | IC50 [nM]
C[C@@H](c1cccc2ccccc12)[C@@H]1NC(=O)[C@@H]2C[C@H](F)CN2C(=O)CNC(=O)[C@H](Cc2ccc(C(=O)O)cc2)NC(=O)[C@H](Cc2ccncc2)NC(=O)[C@H](Cc2ccc(-c3ccc(C(=O)O)cc3)cc2)NC(=O)[C@H]2C[C@@H](Cc3ccc(F)cc3)CN2C(=O)CNC(=O)[C@H](CCN)NC(=O)[C@H](CCC(N)=O)NC(=O)[C@H](Cc2cncnc2)NC(=O)C(C)(C)NC(=O)[C@H](Cc2c[nH]c3ccccc23)NC(=O)[C@H](CO)NC(=O)C(C)(C)NC1=O [Example 140] (cyclo([Bip(4'-COOH)][4Pal][Phe(4-COOH)]G[Pro(cis-4-F)][1Nal(3S-Me)][Aib]SW[Aib][Ala(pyrimidin-5-yl)]Q[Dab]G[dPro(4R-Bzl(4-F))])) | 0.033
C[C@@H](c1c[nH]c2cccc(F)c12)[C@@H]1NC(=O)[C@@H]2C[C@H](F)CN2C(=O)CNC(=O)[C@H](Cc2ccc(C(=O)O)cc2)NC(=O)[C@H](CC23CC(C2)C3)NC(=O)[C@H](Cc2ccc(-c3ccc(C(=O)O)cc3)cc2)NC(=O)[C@H]2C[C@@H](Cc3ccc(F)cc3)CN2C(=O)CNC(=O)[C@H](CCN)NC(=O)[C@H](CCC(N)=O)NC(=O)[C@H](Cc2cncnc2)NC(=O)[C@](C)(CCCCN)NC(=O)[C@H](Cc2c[nH]c3ccccc23)NC(=O)[C@H](CO)NC(=O)C(C)(C)NC1=O [Example 144] (cyclo([Bip(4'-COOH)][Ala(1-bicyclo(1.1.1)pentyl)][Phe(4-COOH)]G[Pro(cis-4-F)][Trp(βS-Me,4-F)][Aib]SW[αMeK][Ala(pyrimidin-5-yl)]Q[Dab]G[dPro(4R-Bzl(4-F))])) | 0.031
C[C@@H](c1c[nH]c2cccc(F)c12)[C@@H]1NC(=O)[C@@H]2C[C@H](F)CN2C(=O)CNC(=O)[C@H](Cc2ccc(C(=O)O)cc2)NC(=O)[C@H](CC23CC(C2)C3)NC(=O)[C@H](Cc2ccc(-c3ccc(C(=O)O)cc3)cc2)NC(=O)[C@H]2C[C@@H](Cc3ccc(F)cc3)CN2C(=O)CNC(=O)[C@H](CCN)NC(=O)[C@H](CCC(N)=O)NC(=O)[C@H](Cc2cncnc2)NC(=O)[C@@](C)(CCCCN)NC(=O)[C@H](Cc2c[nH]c3ccccc23)NC(=O)[C@H](CO)NC(=O)C(C)(C)NC1=O [Example 145] (cyclo([Bip(4'-COOH)][Ala(1-bicyclo(1.1.1)pentyl)][Phe(4-COOH)]G[Pro(cis-4-F)][Trp(βS-Me,4-F)][Aib]SW[d(αMeK)][Ala(pyrimidin-5-yl)]Q[Dab]G[dPro(4R-Bzl(4-F))])) | 0.041
C[C@@H](c1c[nH]c2cccc(F)c12)[C@@H]1NC(=O)[C@@H]2C[C@H](F)CN2C(=O)CNC(=O)[C@H](Cc2ccc(C(=O)O)cc2)NC(=O)[C@H](CC23CC(C2)C3)NC(=O)[C@H](Cc2ccc(-c3ccc(C(=O)O)cc3)cc2)NC(=O)[C@H]2C[C@@H](Cc3ccc(F)cc3)CN2C(=O)CNC(=O)[C@H](CCN)NC(=O)[C@H](CCC(N)=O)NC(=O)[C@H](CC2CCOCC2)NC(=O)[C@](C)(CCCCN)NC(=O)[C@H](Cc2c[nH]c3ccccc23)NC(=O)[C@H](CO)NC(=O)C(C)(C)NC1=O [Example 146] (cyclo([Bip(4'-COOH)][Ala(1-bicyclo(1.1.1)pentyl)][Phe(4-COOH)]G[Pro(cis-4-F)][Trp(βS-Me,4-F)][Aib]SW[αMeK][Ala(4-THP)]Q[Dab]G[dPro(4R-Bzl(4-F))])) | 0.034
C[C@@H](c1c[nH]c2cccc(F)c12)[C@@H]1NC(=O)[C@@H]2C[C@H](F)CN2C(=O)CNC(=O)[C@H](Cc2ccc(C(=O)O)cc2)NC(=O)[C@H](CC23CC(C2)C3)NC(=O)[C@H](Cc2ccc(-c3ccc(C(=O)O)cc3)cc2)NC(=O)[C@H]2C[C@@H](Cc3ccc(F)cc3)CN2C(=O)CNC(=O)[C@H](CCN)NC(=O)[C@H](CCC(N)=O)NC(=O)[C@H](Cc2cncnc2)NC(=O)[C@](C)(CCCCN)NC(=O)[C@H](Cc2c[nH]c3ccccc23)NC(=O)[C@H](CCO)NC(=O)C(C)(C)NC1=O [Example 147] (cyclo([Bip(4'-COOH)][Ala(1-bicyclo(1.1.1)pentyl)][Phe(4-COOH)]G[Pro(cis-4-F)][Trp(βS-Me,4-F)][Aib][hSer]W[αMeK][Ala(pyrimidin-5-yl)]Q[Dab]G[dPro(4R-Bzl(4-F))])) | 0.045
C[C@@H](c1c[nH]c2cccc(Cl)c12)[C@@H]1NC(=O)[C@@H]2C[C@H](F)CN2C(=O)CNC(=O)[C@H](Cc2ccc(C(=O)O)cc2)NC(=O)[C@H](Cc2ccncc2)NC(=O)[C@H](Cc2ccc(-c3ccc(C(=O)O)cc3)cc2)NC(=O)[C@H]2C[C@@H](Cc3ccc(F)cc3)CN2C(=O)CNC(=O)[C@H](CCN)NC(=O)[C@H](CCC(N)=O)NC(=O)[C@H](Cc2cncnc2)NC(=O)C(C)(C)NC(=O)[C@H](Cc2c[nH]c3ccccc23)NC(=O)[C@H](CCC(=O)O)NC(=O)C(C)(C)NC1=O [Example 148] (cyclo([Bip(4'-COOH)][4Pal][Phe(4-COOH)]G[Pro(cis-4-F)][Trp(4-Cl)(βS-Me)][Aib]EW[Aib][Ala(pyrimidin-5-yl)]Q[Dab]G[dPro(4R-Bzl(4-F))])) | 0.032

Compounds with a lower IC50, results first:

IC50 [nM] | Compound
0.026 | C[C@@H](c1c[nH]c2cccc(F)c12)[C@@H]1NC(=O)[C@@H]2C[C@H](F)CN2C(=O)CNC(=O)[C@H](Cc2ccc(C(=O)O)cc2)NC(=O)[C@H](Cc2ccncc2)NC(=O)[C@H](Cc2ccc(-c3ccc(C(=O)O)cc3)cc2)NC(=O)[C@H]2C[C@@H](Cc3ccc(Br)cc3)CN2C(=O)CNC(=O)[C@H](CCN)NC(=O)[C@H](CCC(N)=O)NC(=O)[C@H](Cc2cncnc2)NC(=O)C(C)(C)NC(=O)[C@H](Cc2c[nH]c3ccccc23)NC(=O)[C@H](CCC(=O)O)NC(=O)C(C)(C)NC1=O [Example 143] (cyclo([Bip(4'-COOH)][4Pal][Phe(4-COOH)]G[Pro(cis-4-F)][Trp(βS-Me,4-F)][Aib]EW[Aib][Ala(pyrimidin-5-yl)]Q[Dab]G[X19]))
0.024 | C[C@@H](c1cccc2ccccc12)[C@@H]1NC(=O)[C@@H]2C[C@H](F)CN2C(=O)CNC(=O)[C@H](Cc2ccc(C(=O)O)cc2)NC(=O)[C@H](Cc2ccncc2)NC(=O)[C@H](Cc2ccc(-c3ccc(C(=O)O)cc3)cc2)NC(=O)[C@H]2C[C@@H](Cc3ccc(F)cc3)CN2C(=O)CNC(=O)[C@H](CCN)NC(=O)[C@H](CCC(N)=O)NC(=O)[C@H](Cc2cncnc2)NC(=O)C(C)(C)NC(=O)[C@H](Cc2c[nH]c3ccccc23)NC(=O)[C@H](CCC(=O)O)NC(=O)C(C)(C)NC1=O [Example 149] (cyclo([Bip(4'-COOH)][4Pal][Phe(4-COOH)]G[Pro(cis-4-F)][1Nal(3S-Me)][Aib]EW[Aib][Ala(pyrimidin-5-yl)]Q[Dab]G[dPro(4R-Bzl(4-F))]))
0.022 | C[C@@H](c1c[nH]c2cccc(F)c12)[C@@H]1NC(=O)[C@@H]2C[C@H](F)CN2C(=O)CNC(=O)[C@H](Cc2ccc(C(=O)O)cc2)NC(=O)[C@H](Cc2ccncc2)NC(=O)[C@H](Cc2ccc(-c3ccc(C(=O)O)cc3)cc2)NC(=O)[C@H]2[C@@H](Cc3ccc(Br)cc3)CCN2C(=O)CNC(=O)[C@H](CCCN)NC(=O)[C@H](CCC(N)=O)NC(=O)[C@H](Cc2cncnc2)NC(=O)C(C)(C)NC(=O)[C@H](Cc2c[nH]c3ccccc23)NC(=O)[C@H](CCC(=O)O)NC(=O)C(C)(C)NC1=O [Example 151] (cyclo([Bip(4'-COOH)][4Pal][Phe(4-COOH)]G[Pro(cis-4-F)][Trp(βS-Me,4-F)][Aib]EW[Aib][Ala(pyrimidin-5-yl)]Q[Orn]G[dPro(3S-(4-Br-benzyl))]))
0.019 | C[C@@H](c1c[nH]c2cccc(F)c12)[C@@H]1NC(=O)[C@@H]2C[C@H](F)CN2C(=O)CNC(=O)[C@H](Cc2ccc(C(=O)O)cc2)NC(=O)[C@H](Cc2ccncc2)NC(=O)[C@H](Cc2ccc(-c3ccc(C(=O)O)cc3)cc2)NC(=O)[C@H]2C[C@@H](Cc3ccc(F)cc3)CN2C(=O)CNC(=O)[C@H](CCN)NC(=O)[C@H](CCC(N)=O)NC(=O)[C@H](Cc2cncnc2)NC(=O)[C@@](C)(CCN)NC(=O)[C@H](Cc2c[nH]c3ccccc23)NC(=O)[C@H](CO)NC(=O)C(C)(C)NC1=O [Example 142] (cyclo([Bip(4'-COOH)][4Pal][Phe(4-COOH)]G[Pro(cis-4-F)][Trp(βS-Me,4-F)][Aib]SW[dαMeDab][Ala(pyrimidin-5-yl)]Q[Dab]G[dPro(4R-Bzl(4-F))]))
0.019 | C[C@@H](c1c[nH]c2cccc(F)c12)[C@@H]1NC(=O)[C@@H]2C[C@H](F)CN2C(=O)CNC(=O)[C@H](Cc2ccc(C(=O)O)cc2)NC(=O)[C@H](Cc2ccncc2)NC(=O)[C@H](Cc2ccc(-c3ccc(C(=O)O)cc3)cc2)NC(=O)[C@H]2[C@@H](Cc3ccc(Br)cc3)CCN2C(=O)CNC(=O)[C@H](CN)NC(=O)[C@H](CCC(N)=O)NC(=O)[C@H](Cc2cncnc2)NC(=O)C(C)(C)NC(=O)[C@H](Cc2c[nH]c3ccccc23)NC(=O)[C@H](CCC(=O)O)NC(=O)C(C)(C)NC1=O [Example 150] (cyclo([Bip(4'-COOH)][4Pal][Phe(4-COOH)]G[Pro(cis-4-F)][Trp(βS-Me,4-F)][Aib]EW[Aib][Ala(pyrimidin-5-yl)]Q[Dap]G[dPro(3S-(4-Br-benzyl))]))
0.011 | C[C@@H](c1c[nH]c2cccc(F)c12)[C@@H]1NC(=O)[C@@H]2C[C@H](F)CN2C(=O)CNC(=O)[C@H](Cc2ccc(C(=O)O)cc2)NC(=O)[C@H](Cc2ccncc2)NC(=O)[C@H](Cc2ccc(-c3ccc(C(=O)O)cc3)cc2)NC(=O)[C@H]2C[C@@H](Cc3ccc(F)cc3)CN2C(=O)CNC(=O)[C@H](CCN)NC(=O)[C@H](CCC(N)=O)NC(=O)[C@H](Cc2cncnc2)NC(=O)[C@](C)(CC(=O)O)NC(=O)[C@H](Cc2c[nH]c3ccccc23)NC(=O)[C@H](CO)NC(=O)C(C)(C)NC1=O [Example 141] (cyclo([Bip(4'-COOH)][4Pal][Phe(4-COOH)]G[Pro(cis-4-F)][Trp(βS-Me,4-F)][Aib]SW[αMeD][Ala(pyrimidin-5-yl)]Q[Dab]G[dPro(4R-Bzl(4-F))]))
